According to article PMC7719179, “Small molecule inhibition of Dynamin-dependent endocytosis targets multiple niche signals and impairs leukemia stem cells” (Nature Communications, 2020):
Several values for one entry are separate records, joined by “and”; a condition that tells them apart may be missing. Identical values can stand only once.

Columns and labels:
[1] = system: pre-leukemic clones in DN3a cells; test: Tcrβ gene rearrangement (clonality) in DN3a thymocytes of treated Lmo2^Tg mice; type: in vivo, mouse
Method: page 8: Supplementary Figure 4. […] therapy (VXL) or combination therapy was administered. Mean ± SEM, 2 -way ANOVA with Tukey’s […] poly-clonal Tcrβ gene rearrangements (pie charts) in these purified thymocytes (n = 5).

[2] = system: pSTAT5 and pERK in AML01-307 and AML18 patient-derived cells; test: pSTAT5 and pERK in AML01-307 and AML18 cells harvested from treated recipients; type: in vivo, human
Method: Phosphoflow analysis was performed as previously described. Briefly, 2 × 10^6 cells stained for surface markers were subsequently resuspended into PBS 1× + 4% v/v paraformaldehyde and incubated for 10 min at 4 °C for fixation. Fixed cells were washed twice using PBS 1×, then resuspended in pre-chilled at −20 °C Perm Buffer III (BD Pharmingen) and incubated 30 min at 4 °C for permeabilization. Cells were washed twice using PBS 1× and incubated overnight at 4 °C in PBS 1× + 2% v/v fetal calf serum (FCS) with Cell Signalling purified antibodies (Genesearch Pty Ltd, Arundel QLD, Australia) against pSTAT5 (Tyr694; #9359), phospho-p38 MAPK (Thr180/Tyr182; #4511), phospho-p44/42 (Erk1/2; #9102), phospho-S6 (Ser235/236; #4856) and phospho-Akt (Ser473; #9271) or isotype control. For intracellular HES1 detection, cells stained for surface markers were subsequently fixed and permeabilized using the BD Cytofix/Cytoperm^TM Kit and incubated overnight at 4 °C in PBS 1× + 2% v/v FCS with a purified antibody against HES1 (D6PU; #11988, Cell Signalling) or isotype control. After staining with primary antibodies for phosphoflow or intracellular detection, cells were incubated in permeabilization buffer with donkey Alexa Fluor 488-conjugated anti-rabbit secondary antibody (A-21206, lot #1910751, Molecular Probes, Invitrogen) or goat Alexa Fluor 546-conjugated anti-rabbit secondary antibody (A-11035, lot #1904467, Molecular Probes, Invitrogen) for 1 h on ice, and washed twice in PBS 1×. Fluorescence-activated cell sorting (FACS) analysis was performed using LSRII and LSR Fortessa cytometers, following the gating strategies described in Supplementary Fig. 11. Cell sorting was performed with a FACSAria or BD Influx.
Patient-derived xenograft models were established as previously described[97],[98]. […] For transplantation assays, 10^6 splenocytes harvested from successfully engrafted primary human ETP-ALL or T-ALL xenografts were injected into nonobese diabetic/severe combined immunodeficient (NOD.Cg-Prkdc^scid, also termed NOD/SCID) or NOD/SCID/Il2rg^tm1wjl/SzJ (NSG) mice[99]. Moreover, 1.5 × 10^6 cells splenocytes harvested from successfully engrafted patient-derived AML xenografts were injected into nonobese diabetic/severe immunodeficient (NOD.Cg-Rag1^tm1MomIl2rg^tm1wjl/SzJ, also termed NRG) mice expressing human IL-3, human GM-CSF and human SCF from the SGM3 triple transgene (NRGS)[100]. Engraftment into recipients was monitored by FACS analysis of peripheral blood as previously described. […] The in vivo efficacy of Dynole 34-2 was assessed 24 h after the last injection by FACS analysis and immunohistochemistry as described in Supplementary Methods. […]
assessed by flow cytometry. […]

[3] = system: HES1 in patient-derived ETP-ALL and T-ALL cells; test: NOTCH1-induced HES1 in human ETP-ALL and T-ALL xenograft cells; type: cell-based; details: for HES1 relative expression, FOLD: fold over unstimulated
Method: Splenocytes from secondary xenografts were processed as previously described. […] Flow cytometric analysis of surface IL-7R levels and intracellular levels of pSTAT5 were performed as described in the FACS analysis section. For activation of NOTCH1-mediated signalling, 5 × 10^5 rested leukemia cells were seeded on OP9-DL1 stromal cells. Co-culture on OP9 stromal cells was used as a negative control. After 16 h of co-culture, leukemia cells were washed twice using cold PBS 1×. Flow cytometric analysis of NOTCH1 expression and intracellular levels of HES1 were performed as described in the FACS analysis section.

For `CCCCCCCCNC(=O)C(C#N)=Cc1cn(CCCN(C)C)c2ccccc12` [Dynole 34-2, 2-Cyano-N-octyl-3-(1-(3-dimethylaminopropyl)-1H-indol-3-yl)-acrylamide], the “Clonality (%) for each sample: Oligoclonal” value ([1]; mouse, in vivo) was 100% and 50%, the “clonality of DN3a cells by Tcrβ rearrangement” value ([1]; treated Lmo2^Tg mice, result in words) was “reduced monoclonality” and the “pERK (MFI) in human CD45+ cells” value ([2]; PDX AML01-307) was 2273 MFI and 2265 MFI and 2049 MFI. For the same compound, the “pSTAT5 (MFI) in human CD45+ cells” value ([2]; PDX AML01-307) was 8952 MFI and 11167 MFI and 9167 MFI, the “pERK (MFI) in human CD45+ cells” value ([2]; PDX AML18) was 5026 MFI and 5676 MFI and 5643 MFI and 5242 MFI and 5439 MFI and 6959 MFI and the “pSTAT5 (MFI) in human CD45+ cells” value ([2]; PDX AML18) was 4926 MFI and 5695 MFI and 4653 MFI. The “HES1 relative expression, MFI” value ([3]; ALL8) was 4877 MFI and 4405 MFI, the “HES1 relative expression, FOLD” value ([3]; ALL8) was 0.60 FOLD and 0.67 FOLD and the “HES1 relative expression, MFI” value ([3]; ALL16) was 5772 MFI and 5666 MFI. The “HES1 relative expression, FOLD” value ([3]; ALL16) was 0.83 FOLD and 0.85 FOLD, the “HES1 relative expression, MFI” value ([3]; ALL29) was 5243 MFI and 5145 MFI and the “HES1 relative expression, FOLD” value ([3]; ALL29) was 0.70 FOLD and 0.71 FOLD. The “HES1 relative expression, MFI” value ([3]; ALL31) was 5977 MFI and 5691 MFI, the “HES1 relative expression, FOLD” value ([3]; ALL31) was 0.71 FOLD and 0.74 FOLD and the “HES1 relative expression, MFI” value ([3]; ALL33) was 6590 MFI and 6678 MFI. For the same compound, the “HES1 relative expression, FOLD” value ([3]; ALL33) was 0.90 FOLD and 0.89 FOLD, the “HES1 relative expression, MFI” value ([3]; ETP1) was 6721 MFI and 6600 MFI and the “HES1 relative expression, FOLD” value ([3]; ETP1) was 0.88 FOLD and 0.90 FOLD. For the same compound, the “HES1 relative expression, MFI” value ([3]; ETP5) was 7460 MFI and 7513 MFI, the “HES1 relative expression, FOLD” value ([3]; ETP5) was 0.72 FOLD and the “HES1 relative expression, MFI” value ([3]; ETP8) was 6107 MFI and 5672 MFI. For the same compound, the “HES1 relative expression, FOLD” value ([3]; ETP8) was 0.72 FOLD and 0.78 FOLD, the “HES1 relative expression, MFI” value ([3]; ETP12) was 6018 MFI and 5803 MFI and the “HES1 relative expression, FOLD” value ([3]; ETP12) was 0.87 FOLD and 0.89 FOLD. For the same compound, the “HES1 relative expression, MFI” value ([3]; ETP13) was 4629 MFI and 4445 MFI, the “HES1 relative expression, FOLD” value ([3]; ETP13) was 0.69 FOLD and 0.72 FOLD and the “HES1 relative expression, MFI” value ([3]; ETP14) was 4477 MFI and 4496 MFI. For the same compound, the “HES1 relative expression, FOLD” value ([3]; ETP14) was 0.89 FOLD and 0.86 FOLD and the HES1 protein levels ([3]; immature and mature subtypes of human T-ALL, result in words) was “significantly decreased”.
